Here are results for 19 compounds from US20250263424A1, “KRAS INHIBITORS” (Bristol-Myers Squibb Company, priority 2022, published 2025).

The target in this experiment is Recombinant GMPPNP-loaded KRAS G12C (KRAS-G12C(ON), active form) (Homo sapiens, UniProt P01116, G12C). Description: KRAS G12C RAF Disruption Assay (HTRF). The format is biochemical. The conditions noted are these: GMPPNP-loaded KRAS G12C 5 nM, GST-RAF1 RBD 9 nM, read-out: KRASG12C RAF Disruption Assay (IC50). The procedure: This is a functional assay that measures activity of compounds against […]., the active form of KRAS G12C. Recombinant GMPPNP-loaded KRAS G12C (5 nM) was treated with compound at room temperature for 20 minutes in assay buffer (50 mM Tris pH 7.5, 100 mM NaCl, 1 mM MgCl2, 1 mM DTT, 100 μg/ml BSA). Recombinant GST-RAF1 RBD (9 nM) was added, and the reaction mixture was incubated for 20 minutes. SA-Tb (0.25 nM) was added, and the reaction mixture was incubated for 3 hours. HTRF signal was measured (PerkinElmer Envision), the signal ratio (λem 520/λem 495) was calculated, and IC50 values were calculated from the dose-response curve.
Background: Time-resolved FRET reads energy transfer from a long-lived donor to a nearby acceptor.

Read-outs that look alike come from different tables or passages of the source.

Sequence of Recombinant GMPPNP-loaded KRAS G12C (KRAS-G12C(ON), active form) (P01116 1-188 isoform P01116-2 G12C): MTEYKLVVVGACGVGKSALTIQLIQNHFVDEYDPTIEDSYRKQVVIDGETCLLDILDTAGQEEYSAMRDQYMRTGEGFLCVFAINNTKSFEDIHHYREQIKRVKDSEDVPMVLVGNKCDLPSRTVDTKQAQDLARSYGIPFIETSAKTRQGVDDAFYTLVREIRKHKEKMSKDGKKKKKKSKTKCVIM

On to `COCCCN1CCC(Oc2nc(N3CCN(C(=O)/C(F)=C/c4ccccn4)[C@@H](CC#N)C3)c3ccc(-c4cccc5cccc(Cl)c45)c(F)c3n2)CC1` [Example 73, (S,Z)-2-(4-(7-(8-chloronaphthalen-1-yl)-8-fluoro-2-((1-(3-methoxypropyl)piperidin-4-yl)oxy)quinazolin-4-yl)-1-(2-fluoro-3-(pyridin-2-yl)acryloyl)piperazin-2-yl)acetonitrile], for which, under “values in nM”, the 50% inhibitory concentration (IC50) was 710 nM.

Consider `Cc1cc(N)nc(-c2c(Cl)cc3c(N4CC[C@@H]5CC[C@H](C4)N5C(=O)/C(F)=C/c4nccs4)nc(OC[C@]45CCC[C@H]4N(C)CCC5)nc3c2F)c1C(F)(F)F` [Example 70, (Z)-1-((1R,6S)-3-(7-(6-amino-4-methyl-3-(trifluoromethyl)pyridin-2-yl)-6-chloro-8-fluoro-2-(((4aS,7aR)-1-methyloctahydro-4aH-cyclopenta[b]pyridin-4a-yl)methoxy)quinazolin-4-yl)-3,9-diazabicyclo[4.2.1]nonan-9-yl)-2-fluoro-3-(thiazol-2-yl)prop-2-en-1-one], for which, where the note is “values in nM”, the IC50 came to 7900 nM.

For `C#Cc1c(F)ccc2cc(O)cc(-c3ccc4c(N5CCN(C(=O)/C(F)=C/c6nccs6)CC5)nc(OC[C@@]56CCCN5C[C@H](F)C6)nc4c3F)c12` [Example 72, (Z)-1-(4-(7-(8-ethynyl-7-fluoro-3-hydroxynaphthalen-1-yl)-8-fluoro-2-(((2R,7aS)-2-fluorotetrahydro-1H-pyrrolizin-7a(5H)-yl)methoxy)quinazolin-4-yl)piperazin-1-yl)-2-fluoro-3-(thiazol-2-yl)prop-2-en-1-one], the IC50 (values in nM) amounted to 2 nM.

For the compound `Cc1cc(N)nc(-c2c(Cl)cc3c(N4CC5CCC(C4)N5C(=O)/C(F)=C/c4nccs4)nc(OCC4(CN5CCCCC5)CC4)nc3c2F)c1C(F)(F)F` [Example 11, (Z)-1-((1R,5S)-3-((7M)-7-(6-amino-4-methyl-3-(trifluoromethyl)pyridin-2-yl)-6-chloro-8-fluoro-2-((1-(piperidin-1-ylmethyl)cyclopropyl)methoxy)quinazolin-4-yl)-3,8-diazabicyclo[3.2.1]octan-8-yl)-2-fluoro-3-(thiazol-2-yl)prop-2-en-1-one], the IC50 (values given in μM) was 5300 nM.

Take `CN1CCC[C@H]1COc1nc(N2CCN(C(=O)/C(F)=C/c3nccs3)[C@@H](CC#N)C2)c2ccc(-c3cccc4cccc(Cl)c34)c(F)c2n1` [Example 33, 2-((S)-1-((Z)-2-fluoro-3-(thiazol-2-yl)acryloyl)-4-(8-fluoro-7-(8-chloronaphthalen-1-yl)-2-(((S)-1-methylpyrrolidin-2-yl)methoxy)quinazolin-4-yl)piperazin-2-yl)acetonitrile]: under “values in nM”, the IC50 turned out to be 76 nM.

Turning to `CN1CCC[C@H]1COc1nc(N2CCN(C(=O)/C(F)=C/c3cccnn3)[C@@H](CC#N)C2)c2ccc(-c3c(O)cccc3F)c(F)c2n1` [Example 57], the IC50 (values in nM) was 130 nM.

For the compound `Cc1cc(N)nc(-c2c(Cl)cc3c(N4CC5CCC4CN5C(=O)/C(F)=C/c4ccccn4)nc(OC[C@@H]4CCCN4C)nc3c2F)c1C(F)(F)F` (stereo partly drawn) [Example 6, (Z)-1-(5-((7M)-7-(6-amino-4-methyl-3-(trifluoromethyl)pyridin-2-yl)-6-chloro-8-fluoro-2-(((S)-1-methylpyrrolidin-2-yl)methoxy)quinazolin-4-yl)-2,5-diazabicyclo[2.2.2]octan-2-yl)-2-fluoro-3-(pyridin-2-yl)prop-2-en-1-one], the 50% inhibitory concentration (IC50) (values given in μM) came to 4900 nM.

Consider `N#CC[C@H]1CN(c2nc(OC[C@@]34CCCN3C[C@H](F)C4)nc3c(F)c(-c4cc(O)cc5ccccc45)ccc23)CCN1C(=O)/C(F)=C/c1ncccn1` [Example 40, 2-((S)-4-(8-fluoro-2-(((2R,7aS)-2-fluorotetrahydro-1H-pyrrolizin-7a(5H)-yl)methoxy)-7-(3-hydroxynaphthalen-1-yl)quinazolin-4-yl)-1-((Z)-2-fluoro-3-(pyrimidin-2-yl)acryloyl)piperazin-2-yl)acetonitrile], for which, for the setting “values in nM”, the concentration for half-maximal inhibition (IC50) is 11 nM.

On to `Cc1cccc(/C=C(\F)C(=O)N2CCN(c3nc(OC[C@@H]4CCCN4C)nc4c(F)c(-c5cccc6cccc(Cl)c56)ccc34)C[C@@H]2CC#N)n1` [Example 36, 2-((S)-1-((Z)-2-fluoro-3-(6-methylpyridin-2-yl)acryloyl)-4-(8-fluoro-7-(8-chloronaphthalen-1-yl)-2-(((S)-1-methylpyrrolidin-2-yl)methoxy)quinazolin-4-yl)piperazin-2-yl)acetonitrile], for which, where the note is “values in nM”, the IC50 was 25 nM.

As for `Cc1ccc2[nH]ncc2c1-c1ccc2c(N3CCN(C(=O)/C(F)=C/c4ccccn4)[C@@H](CC#N)C3)nc(OC[C@@H]3CCCN3C)nc2c1F` [Example 50, 2-((2S)-1-((Z)-2-fluoro-3-(pyridin-2-yl)acryloyl)-4-(8-fluoro-7-(5-methyl-1H-indazol-4-yl)-2-(((S)-1-methylpyrrolidin-2-yl)methoxy)quinazolin-4-yl)piperazin-2-yl)acetonitrile], for the setting “values in nM”, the half-inhibitory concentration (IC50) came to 100 nM.

For the compound `Cc1cc(N)nc(-c2c(Cl)cc3c(N4CC[C@@H]5CC[C@H](C4)N5C(=O)/C(F)=C/c4nccs4)nc(OC[C@@]45CCCN4C[C@H](F)C5)nc3c2F)c1C(F)(F)F` [Example 71, (Z)-1-((1R,6S)-3-(7-(6-amino-4-methyl-3-(trifluoromethyl)pyridin-2-yl)-6-chloro-8-fluoro-2-(((2R,7aS)-2-fluorotetrahydro-1H-pyrrolizin-7a(5H)-yl)methoxy)quinazolin-4-yl)-3,9-diazabicyclo[4.2.1]nonan-9-yl)-2-fluoro-3-(thiazol-2-yl)prop-2-en-1-one], the concentration for half-maximal inhibition (IC50) (values in nM) stood at 9000 nM.

On to `Cc1ccc2[nH]ncc2c1-c1ccc2c(N3CCN(C(=O)/C(F)=C/c4nccs4)[C@@H](CC#N)C3)nc(OC[C@@]34CCCN3C[C@H](F)C4)nc2c1F` [Example 77, 2-((2S)-4-(8-fluoro-2-(((2R,7aS)-2-fluorotetrahydro-1H-pyrrolizin-7a(5H)-yl)methoxy)-7-(5-methyl-1H-indazol-4-yl)quinazolin-4-yl)-1-((Z)-2-fluoro-3-(thiazol-2-yl)acryloyl)piperazin-2-yl)acetonitrile], for which the 50% inhibitory concentration (IC50) (values in nM) was found to be 50 nM.

As for `Cc1cc(N)nc(-c2c(Cl)cc3c(N4C[C@]5(NC(=O)/C(F)=C/c6nccs6)CC[C@H]4C5)nc(OC[C@@H]4CCCN4C)nc3c2F)c1C(F)(F)F` (atropisomer, axis not shown; (M)) [Example 48, (2Z)-N-[(1S,4S)-2-[(7M)-7-[6-amino-4-methyl-3-(trifluoromethyl)pyridin-2-yl]-6-chloro-8-fluoro-2-{[(2S)-1-methylpyrrolidin-2-yl]methoxy}quinazolin-4-yl]-2-azabicyclo[2.2.1]heptan-4-yl]-2-fluoro-3-(thiazol-2-yl)prop-2-enamide], the IC50 (values given in μM) is 2590 nM.

`Cc1cc(N)nc(-c2c(Cl)cc3c(N4CC5CN(C(=O)/C(F)=C/c6nccs6)C5C4)nc(OC[C@]45CCCN4C[C@H](F)C5)nc3c2F)c1C(F)(F)F` (single isomer, unassigned) [Example 15, Isomer 1]: the 50% inhibitory concentration (IC50) (values given in μM) is 93800 nM.

On to `Cc1cc(N)nc(-c2c(Cl)cc3c(N4CC5CCC(C4)N5C(=O)/C(F)=C/c4ccccn4)nc(OC[C@@]45CCCN4C[C@H](F)C5)nc3c2F)c1C(F)(F)F` [Example 7, (Z)-1-((1R,5S)-3-((7M)-7-(6-amino-4-methyl-3-(trifluoromethyl)pyridin-2-yl)-6-chloro-8-fluoro-2-(((2R,7aS)-2-fluorotetrahydro-1H-pyrrolizin-7a(5H)-yl)methoxy)quinazolin-4-yl)-3,8-diazabicyclo[3.2.1]octan-8-yl)-2-fluoro-3-(pyridin-2-yl)prop-2-en-1-one], for which the IC50 (values given in μM) stood at 2000 nM.

Consider `Cc1cc(N)nc(-c2c(Cl)cc3c(N4CC5CCC(C4)N5C(=O)/C(F)=C/c4ccccn4)nc(OC[C@]45CCCN4C[C@H](F)C5)nc3c2F)c1C(F)(F)F` (single isomer, unassigned) [Example 5], for which the IC50 (values given in μM) came out at 2700 nM.

For the compound `Cc1ccc2[nH]ncc2c1-c1ccc2c(N3CCN(C(=O)/C(F)=C/c4nccs4)[C@@H](CC#N)C3)nc(OC[C@@H]3CCCN3C)nc2c1F` [Example 51, 2-((2S)-1-((Z)-2-fluoro-3-(thiazol-2-yl)acryloyl)-4-(8-fluoro-7-(5-methyl-1H-indazol-4-yl)-2-(((S)-1-methylpyrrolidin-2-yl)methoxy)quinazolin-4-yl)piperazin-2-yl)acetonitrile], where the note is “values in nM”, the IC50 came out at 160 nM.

Take `N#CC[C@H]1CN(c2nc(OC[C@@]34CCCN3C[C@H](F)C4)nc3c(F)c(-c4cccc5cccc(C#N)c45)ccc23)CCN1C(=O)/C(F)=C/c1ccccn1` [Example 78, 8-(4-((S)-3-(cyanomethyl)-4-((Z)-2-fluoro-3-(pyridin-2-yl)acryloyl)piperazin-1-yl)-8-fluoro-2-(((2R,7aS)-2-fluorotetrahydro-1H-pyrrolizin-7a(5H)-yl)methoxy)quinazolin-7-yl)-1-naphthonitrile]: the IC50 (values in nM) amounted to 240 nM.

In the case of `N#CC[C@H]1CN(c2nc(OC[C@@]34CCCN3C[C@H](F)C4)nc3c(F)c(-c4cc(O)cc5ccccc45)ccc23)CCN1C(=O)/C(F)=C/c1ccccn1` [Example 39, 2-((S)-4-(8-fluoro-2-(((2R,7aS)-2-fluorotetrahydro-1H-pyrrolizin-7a(5H)-yl)methoxy)-7-(3-hydroxynaphthalen-1-yl)quinazolin-4-yl)-1-((Z)-2-fluoro-3-(pyridin-2-yl)acryloyl)piperazin-2-yl)acetonitrile], the half-inhibitory concentration (IC50) (values in nM) was determined as 23 nM.

As a reminder, the IC50 is the concentration at which inhibition is half-maximal.
